Measured values reported in BigSolDB 2.1.

Cc1c(Br)cccc1C(=O)O
solubility (mole fraction)
Conditions | in DMF | in THF | in acetonitrile | in cyclohexane | in ethanol | in ethyl acetate | in methanol
278.15 K | 0.104 | 0.169 | 0.00326 | – | 0.0358 | 0.027 | 0.0205
283.15 K | 0.126 | 0.183 | 0.00387 | 0.00076 | 0.0398 | 0.031 | 0.0261
288.15 K | 0.152 | 0.196 | 0.00473 | 0.00092 | 0.0449 | 0.0359 | 0.0301
293.15 K | 0.181 | 0.209 | 0.006 | 0.00113 | 0.0513 | 0.0413 | 0.0355
298.15 K | 0.216 | 0.222 | 0.00665 | 0.00135 | 0.0563 | 0.0464 | 0.041
303.15 K | 0.258 | 0.236 | 0.00779 | 0.00162 | 0.0631 | 0.0524 | 0.0479
308.15 K | 0.305 | 0.248 | 0.00955 | 0.00197 | 0.0703 | 0.0601 | 0.0559
313.15 K | 0.361 | 0.26 | 0.0113 | 0.00249 | 0.0831 | 0.0677 | 0.0641
318.15 K | 0.424 | 0.271 | 0.0138 | 0.00312 | 0.0936 | 0.0775 | 0.0724
323.15 K | 0.5 | 0.282 | 0.0164 | 0.00422 | 0.104 | 0.0879 | 0.0815
328.15 K | 0.584 | 0.293 | 0.0194 | 0.00529 | 0.121 | 0.101 | 0.0895
